Reference: US6080780A, “Use of nitroflavonoids for the treatment of anxiety” (University of Strathclyde, priority 1995, dated 2000)
Where two headings read alike, the source gives them in different places.

Assays:
[1] = biological target: central benzodiazepine receptor; test: [3H]-FNZ binding to crude synaptosomal membranes from rat CNS regions; set-up: species or system rat (Wistar); conditions: read-out: Ki, [3H]-FNZ binding
Description: (§1) Adult male Wistar rats weighing 250 g were used for biochemical experiments. Adult male Swiss male weighing 25-30 g were used for pharmacological assays except for inhibitory avoidance and tail flick tests were done in rats. Animals were housed in a controlled environment, with free access to food and water and maintained on a 12 h/12 h day/night cycle.
Displacement curves were performed using [^3 ]-FNZ or [^3 H]-zolpidem ([^3 H]-ZOLP) as radioligands in washed crude synaptosomal membranes from rat cerebral cortex, cerebellum, hippocampus, striatum or spinal cord. Membrane preparations were carried out according to Medina et al. (1990). Briefly, brains were rapidly dissected out on ice and the different structures were homogenized in 10 volumes of 0.32 M sucrose and centrifuged at 900×g for 10 min. The resulting supernatant was centrifuged at 100,000×g for 30 min and the pellet washed twice in 25 mM Tris HCl buffer pH 7.4 at 100,000×g for 30 min, and stored at -20° C. until used.
For [^3 H]-FNZ (84 Ci/mmol, NEN) displacement curves, different concentrations of DNF (0.3 nM to 1 μM) were added to 0.3 mg membrane protein suspended in 1 ml of 25 mM Tris HCl buffer in presence of 0.6 nM of the radioligand. Protein determination was carried out by using the method of Lowry et al. (1951). Nonspecific binding (<5%) was determined in parallel incubations with 10 μM FNZ (Hoffmann-La Roche). The incubation was carried out at 4° C. for 2 h. The assays were determined by filtration under vacuum through Whatman GF/A glass fiber filters, and two washes with 3 ml each of incubation medium. Filters were dried and counted after the addition of 5 ml 2,5-diphenyl-oxazole (PPO)-xylene as scintillation fluid.

GABAλ receptors = test: [3H]-muscimol binding; conditions: 20 μM; data not shown
Description: (§2) Additional binding studies were performed as described elsewhere: [^3 ]-prazosin binding for α1 adrenergic receptors (Medina et al., 1984), [^3 H]-dihidroalprenolol binding for β adrenergic receptors (Medina et al. 1984), [^3 H]-quinuclinidyl benzylate binding for muscarinic cholinergic receptors (Jerusalinksy et al., 1983), [^3 H]-muscimol binding for GABAλ receptors (Medina et al., 1983) and [^3 H]-8-Hydroxydipropylaminotetralin ([^3 H]--OH--DPAT) binding for serotonin (5-HTlλ) receptors (Nenonene et al., 1984).

β adrenergic receptors = test: [3H]-dihidroalprenolol binding; conditions: 20 μM; data not shown
Description: as §2

[2] = biological target: central benzodiazepine receptors; test: Autoradiographic [3H]-FNZ displacement on rat brain sections; format: binding, rat (Wistar); conditions: for Ki: n=3, read-out: Ki, [3H]-FNZ binding, autoradiography
Description: Wistar rats were decapitated and brains rapidly removed. Sagittal sections (15 μm in thickness) were prepared at -20° C. using a microtome-cryostat. The tissue slices were kept frozen at -70° C. until used. For DNF displacement curves to [^3 H]--FNZ binding (0.65 nM), tissue sections were incubated for 60 min at 4° C. in 25 mM Tris HCl buffer, pH 7.4, in presence of different concentrations of DNF (1-600 nM). For non-specific binding we used 10 μM FNZ. The incubation was terminated by rinsing the sections for two min in cold buffer. Sections were briefly dipped in cold distilled water and dried rapidly under a stream of cold air (Niddam et al., 1987).
Autoradiograms were generated by apposing the slide-mounted tissue section to tritium-sensitive film (Hyperfilm Amersham) in a light-proof X-ray cassette at 4° C. for two weeks.
The optical densities from different brain regions were converted first to radioactive units and then to fmol/mm^2 using the [^3 H] standards on the film with the aid of a computerized image densitometric analysis system (MCID 4.02). The values were normalized and the Ki values were determined using a computerized program (Graph-Pad Prism) Bernabeu et al., 1995; Cammarota et al., 1995).

mice = test: Locomotor activity test in mice; format: in vivo, male Swiss mice; conditions: i.p.
Description: as §1
An Opto-varimex® apparatus was used according to Viola et al. (1994). The apparatus discriminates between total and ambulatory activities. An increase in the number of transitions through the beams reflects augmented locomotor activity. In this and all following tests in mice, animals were i.p. injected with the vehicle, or with DNF 20 min before the beginning of the tests. In each session, control mice were tested in parallel with those animals receiving drug treatment.

rats = test: Tail-flick test in rats; format: in vivo, rat
Description: This test was performed according to Siegfried et al. (1987). Analgesia was assessed with a tail-flick apparatus. Rats were wrapped in a towel and placed on the apparatus; the light source positioned below the tail was focused on a point 2.3 cm rostral to the tip of the tail. Deflection of the tail activated a photocell and automatically terminated the trial. Light intensity was adjusted so as to obtain a baseline tail-flick latency (TFL) of 3-6 s. A cut-off time of 10 s was used to prevent tissue damage. Briefly, the general procedure was as follows: a baseline TFL value was obtained for each animal. Following this, the rats were placed alone in a waiting cage. TFL value was measured 1 h after an i.p. injection of vehicle or DNF.

[3] = biological target: central benzodiazepine receptors (BDZ-Rs); test: 3H-FNZ binding to rat brain synaptosomal membranes (Section 3); conditions: rat cerebral cortex; read-out: Ki, 3H-FNZ binding
Description: In brief, for each assay, triplicate samples of the membranes, containing 0.2 to 0.4 mg protein were suspended in a final volume of 1 mL of 0.25 mM Tris--HCl buffer, pH 7.3. The incubation was carried out at 4° C. for 60 min with 0.6 nM ^3 H--FNZ. to study the binding saturation, a range of 0.3 to 10 nM ^3 H--FNZ was used. […] The assays were terminated by filtration under vacuum through Whatman GF/A glass-fiber filters, and three washes with 3 mL each of incubation medium. Filters were dried and counted after the addition of 5 mL of 2,5-diphenyloxazole/xylene as scintillation fluid.
The binding of ^3 H--FNZ was carried out as for (i) above.

With `O=c1cc(-c2cccc([N+](=O)[O-])c2)oc2ccc([N+](=O)[O-])cc12` [Compound (II), 6,3'-dinitroflavone] the Ki ([1]; rat cerebral cortex) was 25.9 ± 3.1 nM, the Ki ([1]; rat hippocampus) was 36.1 ± 5 nM and the Ki ([1]; rat spinal cord) was 48.1 ± 5.5 nM. The Ki ([1]; rat striatum and spinal cord (range over both)) was 44 to 48 nM, the Ki ([1]; rat striatum) was 44.1 ± 4.9 nM and the “displacement of [3H]-muscimol binding” value (GABAλ receptors) was “did not displace”. The “displacement of [3H]-dihidroalprenolol binding” value (β adrenergic receptors) was “did not displace”, the Ki ([2]; dentate gyrus) was 82.2 ± 7.6 nM and the Ki ([2]; parietal cortex) was 30.1 ± 2.6 nM. The “potency to displace [3H]-FNZ, cerebellum vs dentate gyrus” value ([2]; ratio) was 5 times, the Ki ([2]; striatum) was 53.7 ± 7.3 nM and the spontaneous ambulatory locomotion (mice; 0.3 mg/kg, p<0.05) was “slight increase”. For the same compound, the “reduction in the locomotion” value (mice; 10 mg/kg, p<0.01) was 55%, the spontaneous ambulatory locomotion (mice; up to 3 mg/kg) was “no effect on spontaneous ambulatory locomotion” and the “tail-flick latency (TFL)” value (rats; rats, 100 μg/kg, 1 h after i.p., median (interquartile), n=11, vehicle 3.2 s) was 3.5 s. The “TFL (in words)” value (rats; rats, i.p., 100 μg/kg) was “did not alter TFL”, the analgesic effects (rats; up to 10 mg/kg as worded) was “did not evidence anticonvulsant, myorelaxant, amnesic or analgesic effects” and the Ki [3] was 20 nM.
